Data taken from patent US5455222A, “1-substituted-5-thiomethylthiocyanato-1H-tetrazoles, compositions containing them and their use as antimicrobial and marine antifouling agents” (The Dow Chemical Company, priority 1994, dated 1995).
In brackets after ≈: the same amount, converted by molar mass.

Key:
[1] = tested on: Bacillus subtilis (Bs); experiment: Minimum inhibitory concentration (MIC), bacteria in nutrient agar; assay type: cell-based, Bacillus subtilis ATCC 8473; conditions: 48 hours
Description: (§1) The minimum inhibitory concentration (MIC) for the compounds listed in Table I is determined for 9 bacteria, using nutrient agar, and 7 yeast and fungi, using malt yeast agar. A one percent solution of the test compound is prepared in a mixture of acetone and water.
(§2) Nutrient agar is prepared at pH 6.8, representing a neutral medium, and at pH 8.2, representing an alkaline medium. The nutrient agars are prepared by adding 23 g of nutrient agar to one liter of deionized water. In addition, the alkaline medium is prepared by adjusting a 0.04M solution of N-[tris-(hydroxymethyl)methyl]glycine buffered deionized water with concentrated sodium hydroxide to a pH of 8.5.
(§3) The test tubes containing the agar are cooled in a water bath until the temperature of the agar is 48° C. Then, an appropriate amount of the one percent solution of the test compound is added (except in the controls where no compound is added) to the respective test tubes so that the final concentrations are 500, 250, 100, 50, 25, 10, 5, 2.5, 1.0 and zero parts per million of the test compound in the agar, thus having a known concentration of test compound dispersed therein. The contents of the test tubes are then transferred to respective petri plates. After drying for 24 hours, the petri plates containing nutrient agar are inoculated with bacteria and those containing malt yeast agar are inoculated with yeast and fungi.
(§4) The inoculation with bacteria is accomplished by using the following procedure. Twenty-four hour-cultures of each of the bacteria are prepared by incubating the respective bacteria in tubes containing nutrient broth for 24 hours at 30° C. in a shaker. Dilutions of each of the 24 hour-cultures are made so that nine separate suspensions (one for each of the nine test bacteria) are made, each containing 10^8 colony forming units (CFU) per mL of suspension of a particular bacteria. Aliquots of 0.3 mL of each of the bacterial suspensions are used to fill the individual wells of Steer's Replicator. For each microbial suspension, 0.3 mL was used to fill three wells (i.e., three wells of 0.3 mL each) so that for the nine different bacteria, 27 wells are filled. The Steer's Replicator is then used to inoculate both the neutral and alkaline pH nutrient agar petri plates.
(§5) The inoculated petri plates are incubated at 30° C. for 48 hours and then read to determine if the test compound which is incorporated into the agar prevented growth of the respective bacteria.
(§6) Table II lists the bacteria, yeast and fungi used in the MIC test described above along with their respective American Type Culture Collection (ATCC) identification numbers.
(§7) In Tables III and IV, the MIC values of the compounds described in Table I as compared to the MIC of a standard commercial preservative (with 1-(3-chloroallyl)-3,5,7-triaza-1-azoniaadamantane chloride as the active agent and referred to in Tables III and IV as "STANDARD I") are set forth for the bacteria organisms and yeast/fungi organisms which are listed in Table II.

[2] = tested on: Enterobacter aerogenes (Ea); experiment: as above; assay type: cell-based, Enterobacter aerogenes ATCC 13048; conditions: Klebsiella aerogenes, 48 hours
Description: as §1, §2, §3, §4, §5, §6, §7

[3] = tested on: Pseudomonas aeruginosa (Pa); experiment: as above; assay type: cell-based, Pseudomonas aeruginosa ATCC 10145; conditions: 48 hours
Description: as §1, §2, §3, §4, §5, §6, §7

[4] = tested on: Staphylococcus aureus (Sa); experiment: as above; assay type: cell-based, Staphylococcus aureus ATCC 6538; conditions: 48 hours
Description: as §1, §2, §3, §4, §5, §6, §7

[5] = tested on: Aspergillus niger (An); experiment: Minimum inhibitory concentration (MIC), yeast/fungi in malt yeast agar; assay type: cell-based, Aspergillus niger ATCC 16404; conditions: 30° C., 72 hours for fungi
Description: as §1
(§8) Malt yeast agar is prepared by adding 3 g yeast extract and 45 g malt agar per liter of deionized water. The specific agar is dispensed in 30 mL aliquots into 25×200 mm test tubes, capped and autoclaved for 15 minutes at 115° C.
as §3
(§9) The inoculation with the yeast and fungi is accomplished as follows. Cultures of yeast and fungi are incubated for seven days on malt yeast agar at 30° C. These cultures are used to prepare suspensions by the following procedure. A suspension of each organism is prepared by adding 10 mL of sterile saline and 10 microliters of octylphenoxy polyethoxy ethanol to the agar slant of yeast or fungi. The sterile saline/octylphenoxy polyethoxy ethanol solution is then agitated with a sterile swab to suspend the microorganism grown on the slant. Each resulting suspension is diluted into sterile saline (1 part suspension to 9 parts sterile saline). Aliquots of these dilutions are placed in individual wells of Steer's Replicator and petri plates inoculated as previously described. The petri plates are incubated at 30° C. and read after 48 hours for yeast and 72 hours for fungi.
as §6, §7

[6] = tested on: Trichoderma viride (Tv); experiment: as above; assay type: cell-based, Trichoderma viride ATCC 8678; conditions: 30° C., 72 hours for fungi
Description: as §1, §8, §3, §9, §6, §7

[7] = tested on: Aureobasidium pullulan (Ap); experiment: as above; assay type: cell-based, Aureobasidium pullulan ATCC 16622; conditions: 30° C., read after 48 hours for yeast and 72 hours for fungi
Description: as §1, §8, §3, §9, §6, §7

[8] = tested on: Fusarium oxysporum (Fo); experiment: as above; assay type: cell-based, Fusarium oxysporum ATCC 48112; conditions: 30° C., 72 hours for fungi
Description: as §1, §8, §3, §9, §6, §7

Question: How did the MIC ([1]; nutrient agar pH 6.8, 30° C.) turn out when N#CSCSc1nnnn1-c1ccc(Cl)cc1 [III, 1-(4-Chlorophenyl)-5-thiomethylthiocyanato-1H-tetrazole] was run?
Answer: Its MIC is under 10 µg/mL.

Question: What about the MIC ([1]; nutrient agar pH 8.2, 30° C.) of the same compound?
Answer: The MIC was 50 µg/mL (≈ 176 µM).

Question: What about the MIC ([2]; nutrient agar pH 6.8, 30° C.) of the same compound?
Answer: Its MIC is 25 µg/mL (≈ 88.1 µM).

Question: And the MIC ([2]; nutrient agar pH 8.2, 30° C.)?
Answer: Its MIC is 250 µg/mL (≈ 881 µM).

Question: And the MIC ([3]; nutrient agar pH 8.2, 30° C.)?
Answer: Its MIC is 25 µg/mL (≈ 88.1 µM).

Question: And the MIC ([4]; nutrient agar pH 6.8, 30° C.)?
Answer: Its MIC is 25 µg/mL (≈ 88.1 µM).

Question: What about the MIC ([4]; nutrient agar pH 8.2, 30° C.) of the same compound?
Answer: Its MIC is 50 µg/mL (≈ 176 µM).

Question: And the MIC [5]?
Answer: The MIC was under 1 µg/mL.

Question: And the MIC [6]?
Answer: Its MIC is 5 µg/mL (≈ 17.6 µM).

Question: What about the MIC [7] of the same compound?
Answer: The MIC was 2.5 µg/mL (≈ 8.81 µM).

Question: And the MIC [8]?
Answer: Its MIC is 2.5 µg/mL (≈ 8.81 µM).

Question: With N#CSCSc1nnnn1C1CCCCC1 [X, 1-(Cyclohexyl)-5-thiomethylthiocyanato-1H-tetrazole] as the compound, how does the MIC ([1]; nutrient agar pH 6.8, 30° C.) read?
Answer: Its MIC is under 10 µg/mL.

Question: What about the MIC ([1]; nutrient agar pH 8.2, 30° C.) of the same compound?
Answer: The MIC was 25 µg/mL (≈ 97.9 µM).

Question: What about the MIC ([2]; nutrient agar pH 6.8, 30° C.) of the same compound?
Answer: Its MIC is 500 µg/mL (≈ 1960 µM).

Question: What about the MIC ([2]; nutrient agar pH 8.2, 30° C.) of the same compound?
Answer: Its MIC is 500 µg/mL (≈ 1960 µM).

Question: What about the MIC ([3]; nutrient agar pH 6.8, 30° C.) of the same compound?
Answer: Its MIC is 250 µg/mL (≈ 979 µM).

Question: What about the MIC ([3]; nutrient agar pH 8.2, 30° C.) of the same compound?
Answer: Its MIC is 250 µg/mL (≈ 979 µM).

Question: What about the MIC ([4]; nutrient agar pH 6.8, 30° C.) of the same compound?
Answer: Its MIC is 25 µg/mL (≈ 97.9 µM).

Question: And the MIC ([4]; nutrient agar pH 8.2, 30° C.)?
Answer: The MIC was 50 µg/mL (≈ 196 µM).

Question: What about the MIC [5] of the same compound?
Answer: The MIC was 5 µg/mL (≈ 19.6 µM).

Question: What about the MIC [6] of the same compound?
Answer: Its MIC is 50 µg/mL (≈ 196 µM).

Question: And the MIC [7]?
Answer: Its MIC is under 1 µg/mL.

Question: And the MIC [8]?
Answer: Its MIC is 5 µg/mL (≈ 19.6 µM).

Question: Which results are given for Cc1cccc(-n2nnnc2SCSC#N)c1 [VI, 1-(3-Methylphenyl)-5-thiomethylthiocyanato-1H-tetrazole]?
Answer: MIC ([1]; nutrient agar pH 6.8, 30° C.): < 10 µg/mL; MIC ([1]; nutrient agar pH 8.2, 30° C.): 25 µg/mL (≈ 94.9 µM); MIC ([2]; nutrient agar pH 6.8, 30° C.): 500 µg/mL (≈ 1900 µM); MIC ([2]; nutrient agar pH 8.2, 30° C.): 500 µg/mL (≈ 1900 µM); MIC ([3]; nutrient agar pH 8.2, 30° C.): 250 µg/mL (≈ 949 µM); MIC ([4]; nutrient agar pH 6.8, 30° C.): 25 µg/mL (≈ 94.9 µM); MIC ([4]; nutrient agar pH 8.2, 30° C.): 50 µg/mL (≈ 190 µM); MIC [5]: 5 µg/mL (≈ 19 µM); MIC [6]: 25 µg/mL (≈ 94.9 µM); MIC [7]: < 1 µg/mL; MIC [8]: < 1 µg/mL

Question: What does the source list for N#CSCSc1nnnn1-c1cccc(Cl)c1 [II, 1-(3-Chlorophenyl)-5-thiomethylthiocyanato-1H-tetrazole]?
Answer: MIC ([1]; nutrient agar pH 6.8, 30° C.): 100 µg/mL (≈ 352 µM); MIC ([1]; nutrient agar pH 8.2, 30° C.): 250 µg/mL (≈ 881 µM); MIC ([2]; nutrient agar pH 6.8, 30° C.): 500 µg/mL (≈ 1760 µM); MIC ([2]; nutrient agar pH 8.2, 30° C.): 500 µg/mL (≈ 1760 µM); MIC ([3]; nutrient agar pH 8.2, 30° C.): 500 µg/mL (≈ 1760 µM); MIC ([4]; nutrient agar pH 6.8, 30° C.): 250 µg/mL (≈ 881 µM); MIC ([4]; nutrient agar pH 8.2, 30° C.): 100 µg/mL (≈ 352 µM); MIC [5]: < 10 µg/mL; MIC [6]: 25 µg/mL (≈ 88.1 µM); MIC [7]: < 10 µg/mL; MIC [8]: < 10 µg/mL
